Measurements reported in patent US12540161B2, “Linkers” (BicycleTx Limited, priority 2020, dated 2026).

Columns and labels:
in vitro = conditions: for fold increase in half-life vs Cit-Val: 2 μM; for half-life at 2 μM: plasma
Method: Pooled frozen plasma was thawed in a water bath at 37° C. Plasma was centrifuged at 4000 rpm for 5 min and the clots were removed if any. The pH will be adjusted to 7.4±0.1 if required. 1 mM stock solution was prepared with DMSO. Propantheline (positive control) was prepared by making a 100 μM working solution by diluting 5 μL of the stock solution (10 mM) with 495 μL ultra pure water. 100 μM working solutions of test compounds were made up by diluting 10 μL of the stock solution (1 mM) with 90 μL DMSO. 98 μL of blank plasma was spiked with 2 μL of dosing solution (100 μM) to achieve 2 μM of the final concentration in duplicate and samples were incubated at 37° C. in a water bath. […] An aliquot of supernatant (150 μL) was transferred from each well before submitting for LC-MS/MS analysis.
The % remaining test compound after incubation in plasma was calculated using following equation: Remaining=100×(PAR at appointed incubation time/PAR at T0 time)
where PAR is the peak area ratio of analyte versus internal standard (IS).
The half-life (T½) was calculated from a log linear plot of concentration versus time.

Cathepsin B = Cathepsin B (Homo sapiens, UniProt P07858); assay: Cathepsin B (CatB) cleavage assay; assay type: biochemical; conditions: for % Parent remaining after incubation with CatB, T = 1 h / % Parent remaining after incubation with CatB, T = 4 h / % Parent remaining after incubation with CatB, T = 24 h: norfloxacin linker compounds; for % Parent remaining after incubation with CatB, 0 h / % Parent remaining after incubation with CatB, 1 h / % Parent remaining after incubation with CatB, 2 h / % Parent remaining after incubation with CatB, 4 h / % Parent remaining after incubation with CatB, 6 h / % Parent remaining after incubation with CatB, 24 h / half-life at 40 μM: BTCs; for half-life at 40 μM: read-out: CatB t1/2 (converted)
Method: 15 μL of test compound solution (2 mM in DMSO) was added to the incubation plate in duplicate. 30 μL of Cathepsin B stock solution (16 μM) was pre-activated with 1500 μL activation buffer for 10 min at room temperature. The Cathepsin B solution was diluted in 13.17 mL water, then 735 μL activatived enzyme mixture was added to the incubation plate. The mixture was incubated at 37° C. in a waterbath. […] The samples were mixed and centrifuged at 4000 rpm for 20 min. 50 μL of supernatant was taken into a new plate containing 150 μL ultra-pure water and the samples mixed thoroughly before submitting to LC-MS/MS analysis.

| SMILES | fold increase in half-life vs Cit-Val (in vitro; mouse, pH 7.4) [fold] | half-life at 2 μM (in vitro; mouse, pH 7.4) [h] | % Parent remaining after incubation with CatB, T = 1 h (Cathepsin B) [%] | % Parent remaining after incubation with CatB, T = 4 h (Cathepsin B) [%] | % Parent remaining after incubation with CatB, T = 24 h (Cathepsin B) [%] | half-life at 2 μM (in vitro; pH 7.4, Mouse plasma t1/2 expt 2 (EDTA), BTCs, EDTA anticoagulant, experiment 2) [h] | % Parent remaining after incubation with CatB, 0 h (Cathepsin B) [%] | % Parent remaining after incubation with CatB, 1 h (Cathepsin B) [%] | % Parent remaining after incubation with CatB, 2 h (Cathepsin B) [%] | % Parent remaining after incubation with CatB, 4 h (Cathepsin B) [%] | % Parent remaining after incubation with CatB, 6 h (Cathepsin B) [%] | % Parent remaining after incubation with CatB, 24 h (Cathepsin B) [%] | half-life at 40 μM (Cathepsin B) [h] | half-life at 2 μM (in vitro; pH 7.4, Mouse plasma t1/2 (EDTA), BTCs, EDTA anticoagulant) [h] |
| --- | --- | --- | --- | --- | --- | --- | --- | --- | --- | --- | --- | --- | --- | --- |
| CCn1cc(C(=O)O)c(=O)c2cc(F)c(N3CCN(C(=O)OCc4ccc(NC(=O)[C@H](CCN)NC(=O)[C@@H](NC(=O)CCCC(=O)N(C)C)C(C)C)cc4)CC3)cc21 [BCY9474] | 10.8 | 4.3 | 0.3 | 0 | 0 |  |  |  |  |  |  |  |  |  |
| CCn1cc(C(=O)O)c(=O)c2cc(F)c(N3CCN(C(=O)OCc4ccc(NC(=O)[C@H](CCNC(=N)NC)NC(=O)[C@@H](NC(=O)CCCC(=O)N(C)C)C(C)C)cc4)CC3)cc21 [BCY9477] | 6.3 | 2.5 | 0 | 0 | 0 |  |  |  |  |  |  |  |  |  |
| CCn1cc(C(=O)O)c(=O)c2cc(F)c(N3CCN(C(=O)OCc4ccc(NC(=O)[C@H](CCCNC(N)=O)NC(=O)[C@@H](NC(=O)CCCC(=O)N(C)C)C(C)C)cc4)CC3)cc21 [BCY9422, reference compound] | 1.0 | 0.4 | 3 | 0 | 0 |  |  |  |  |  |  |  |  |  |
| CC[C@H](C)[C@@H]([C@@H](CC(=O)N1CCC[C@H]1[C@H](OC)[C@@H](C)C(=O)N[C@H](C)[C@@H](O)c1ccccc1)OC)N(C)C(=O)[C@@H](NC(=O)[C@H](C(C)C)N(C)C(=O)OCc1ccc(NC(=O)[C@H](CCN)NC(=O)[C@@H](NC(=O)Cn2cc(CCC(=O)NCCC(=O)N(C)CC(=O)N(C)CC(=O)N(C)CC(=O)N(C)CC(=O)N(C)CC(=O)N(C)CC(=O)N(C)CC(=O)N(C)CC(=O)N(C)CC(=O)N(C)CC(=O)N[C@@H](C)C(=O)N[C@H]3CN(C)Cc4cc5cc(c4)CN(C)C[C@@H](C(N)=O)NC(=O)[C@H](C(C)(C)C)NC(=O)[C@H](CC(=O)O)NC(=O)[C@H](Cc4ccc(O)cc4)NC(=O)[C@H](Cc4ccccc4)NC(=O)[C@H](CC(=O)O)NC(=O)[C@H](CCC(=O)O)NC(=O)[C@H](CSC5)NC(=O)[C@@H](C)NC(=O)[C@H](Cc4cccc5ccccc45)NC(=O)[C@H](CCC(=O)O)NC(=O)[C@H](CC(N)=O)NC(=O)[C@@H](C)NC3=O)nn2)C(C)C)cc1)C(C)C [BCY10989, MMAE-PAB-(Dab-Val)-BCY3900] |  |  |  |  |  | 30.8 | 100 | 89.4 | 60.7 | 40.4 | 23.2 | 12.8 | 2.8 |  |
| CC[C@H](C)[C@@H]([C@@H](CC(=O)N1CCC[C@H]1[C@H](OC)[C@@H](C)C(=O)N[C@H](C)[C@@H](O)c1ccccc1)OC)N(C)C(=O)[C@@H](NC(=O)[C@H](C(C)C)N(C)C(=O)OCc1ccc(NC(=O)[C@H](CCN)NC(=O)[C@@H](NC(=O)[C@H](CCC(=O)O)NC(=O)Cn2cc(CCC(=O)NCCC(=O)N(C)CC(=O)N(C)CC(=O)N(C)CC(=O)N(C)CC(=O)N(C)CC(=O)N(C)CC(=O)N(C)CC(=O)N(C)CC(=O)N(C)CC(=O)N(C)CC(=O)N[C@@H](C)C(=O)N[C@H]3CN(C)Cc4cc5cc(c4)CN(C)C[C@@H](C(N)=O)NC(=O)[C@H](C(C)(C)C)NC(=O)[C@H](CC(=O)O)NC(=O)[C@H](Cc4ccc(O)cc4)NC(=O)[C@H](Cc4ccccc4)NC(=O)[C@H](CC(=O)O)NC(=O)[C@H](CCC(=O)O)NC(=O)[C@H](CSC5)NC(=O)[C@@H](C)NC(=O)[C@H](Cc4cccc5ccccc45)NC(=O)[C@H](CCC(=O)O)NC(=O)[C@H](CC(N)=O)NC(=O)[C@@H](C)NC3=O)nn2)C(c2ccccc2)c2ccccc2)cc1)C(C)C [BCY10987, MMAE-PAB-(Dab-Dpa-Glu)-BCY3900] |  |  |  |  |  |  | 100 | 104.27 | 90.6 | 90.2 | 94 | 91.48 | > 57.8 | > 57.8 |
| CCn1cc(C(=O)O)c(=O)c2cc(F)c(N3CCN(C(=O)OCc4ccc(NC(=O)[C@H](CCNC(=N)N)NC(=O)[C@@H](NC(=O)CCCC(=O)N(C)C)C(C)C)cc4)CC3)cc21 [BCY9423] | 6.0 | 2.4 | 0.6 | 0 | 0 |  |  |  |  |  |  |  |  |  |
| CCn1cc(C(=O)O)c(=O)c2cc(F)c(N3CCN(C(=O)OCc4ccc(NC(=O)[C@H](CCNC(=N)N)NC(=O)[C@@H](NC(=O)[C@H](CCC(=O)O)NC(=O)CCCC(=O)N(C)C)C(C)C)cc4)CC3)cc21 [BCY9695] | 34.1 | 14.3 | 0 | 0 | 0 |  |  |  |  |  |  |  |  |  |
